The supplement of paper PMC10307832

Legend:
Test in all cases: relative viability (nuclei count vs DMSO), 5 days (fraction); higher = more cells survive
YM155 + Phenformin = compound: COCC[n+]1c2c(n(Cc3cnccn3)c1C)C(=O)c1ccccc1C2=O [YM155] + N=C(N)NC(=N)NCCc1ccccc1 [Phenformin] (partner 250 µM)
Outline: (§1)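 Lung cancer cell lines were seeded in 1536-well plates and dosed by pin tool the next day, with either a single drug or a fixed anchor-drug dose combined with five library-drug doses (not always all listed) spaced in √10 steps. Five days later, one step fixed the cells and stained their nuclei (final 0.05% Triton X-100, 1% formaldehyde, 1 ug/ml Hoechst), and nuclei were counted on 4× images. Relative viability is the nuclei count in treated wells divided by the count in vehicle wells, and each value is the median of duplicate plates.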

Quizartinib + Pictilisib = compound: CC(C)(C)c1cc(NC(=O)Nc2ccc(-c3cn4c(n3)sc3cc(OCCN5CCOCC5)ccc34)cc2)no1 [Quizartinib] + CS(=O)(=O)N1CCN(Cc2cc3nc(-c4cccc5[nH]ncc45)nc(N4CCOCC4)c3s2)CC1 [Pictilisib] (partner 1 µM)
Outline: as §1

Quizartinib + Trametinib = compound: CC(C)(C)c1cc(NC(=O)Nc2ccc(-c3cn4c(n3)sc3cc(OCCN5CCOCC5)ccc34)cc2)no1 [Quizartinib] + CC(=O)Nc1cccc(-n2c(=O)n(C3CC3)c(=O)c3c(Nc4ccc(I)cc4F)n(C)c(=O)c(C)c32)c1 [Trametinib] (partner 0.02 µM)
Outline: as §1

Quizartinib + AZD7762 = compound: CC(C)(C)c1cc(NC(=O)Nc2ccc(-c3cn4c(n3)sc3cc(OCCN5CCOCC5)ccc34)cc2)no1 [Quizartinib] + NC(=O)Nc1cc(-c2cccc(F)c2)sc1C(=O)N[C@H]1CCCNC1 [AZD7762] (partner 0.2 µM)
Outline: as §1

Cell Line | relative viability (YM155 + Phenformin; first compound 0.002 µM) | relative viability (YM155 + Phenformin; first compound 0.006325 µM) | relative viability (YM155 + Phenformin; first compound 0.02 µM) | relative viability (YM155 + Phenformin; first compound 0.06325 µM) | relative viability (Quizartinib + Pictilisib; first compound 0.001 µM) | relative viability (Quizartinib + Pictilisib; first compound 0.003162 µM) | relative viability (Quizartinib + Pictilisib; first compound 0.01 µM) | relative viability (Quizartinib + Pictilisib; first compound 0.03162 µM) | relative viability (Quizartinib + Pictilisib; first compound 0.1 µM) | relative viability (Quizartinib + Trametinib; first compound 0.001 µM) | relative viability (Quizartinib + Trametinib; first compound 0.003162 µM) | relative viability (Quizartinib + Trametinib; first compound 0.01 µM) | relative viability (Quizartinib + Trametinib; first compound 0.03162 µM) | relative viability (Quizartinib + Trametinib; first compound 0.1 µM) | relative viability (Quizartinib + AZD7762; first compound 0.001 µM) | relative viability (Quizartinib + AZD7762; first compound 0.003162 µM) | relative viability (Quizartinib + AZD7762; first compound 0.01 µM) | relative viability (Quizartinib + AZD7762; first compound 0.03162 µM) | relative viability (Quizartinib + AZD7762; first compound 0.1 µM)
LOU-NH91 | 0.647 | 0.783 | 0.785 | 0.783 | 0.431 | 0.559 | 0.521 | 0.465 | 0.545 | 0.425 | 0.756 | 0.817 | 0.786 | 0.826 | 0.749 | 0.768 | 0.739 | 0.722 | 0.827
LU99A | 0.856 | 0.883 | 0.822 | 0.847 | 0.312 | 0.317 | 0.327 | 0.309 | 0.291 | 0.485 | 0.503 | 0.554 | 0.583 | 0.518 | 0.336 | 0.324 | 0.435 | 0.479 | 0.324
LXF-289 | 0.522 | 0.524 | 0.506 | 0.532 | 0.71 | 0.748 | 0.801 | 0.763 | 0.777 | 0.613 | 0.692 | 0.709 | 0.702 | 0.622 | 0.816 | 1.08 | 1.09 | 1.11 | 1.12
NCI-H23 | 0.735 | 0.774 | 0.729 | 0.634 |  | 0.464 | 0.49 | 0.568 | 0.441 | 0.353 | 0.346 | 0.456 | 0.43 | 0.312 | 0.302 | 0.173 | 0.277 | 0.195 | 0.25
NCI-H322M | 0.775 | 0.837 | 0.849 | 0.852 | 0.523 | 0.545 | 0.509 | 0.533 | 0.537 | 0.482 | 0.536 | 0.617 | 0.504 | 0.536 | 0.531 | 0.56 | 0.557 | 0.531 | 0.705
NCI-H358 | 0.325 | 0.315 | 0.37 | 0.351 | 0.297 | 0.332 | 0.305 |  | 0.315 | 0.146 | 0.146 | 0.11 |  | 0.129 | 0.578 | 0.448 | 0.555 |  | 0.5
NCI-H441 | 0.776 | 0.848 | 0.763 | 0.865 | 0.38 | 0.508 | 0.508 | 0.379 | 0.606 | 0.35 | 0.563 | 0.45 | 0.368 | 0.456 | 0.872 | 1.04 | 1.14 | 0.991 | 1.1
NCI-H460 | 0.518 | 0.531 | 0.546 | 0.477 | 0.439 | 0.436 | 0.382 | 0.352 | 0.384 |  | 0.152 | 0.104 |  | 0.0587 |  | 0.591 | 0.648 | 0.544 | 0.621
NCI-H596 | 0.65 | 0.718 | 0.861 | 0.741 | 0.427 | 0.332 | 0.455 | 0.418 | 0.416 | 0.794 | 0.695 | 0.805 | 0.77 | 0.8 | 1.12 | 1.07 | 1.02 | 1.04 | 1.32
NCI-H647 | 0.49 | 0.636 | 0.587 | 0.491 | 0.466 | 0.434 | 0.536 |  | 0.474 | 0.43 | 0.387 | 0.508 | 0.434 | 0.396 | 0.39 | 0.651 | 0.422 | 0.325 | 0.566
NCI-H650 | 0.417 | 0.477 | 0.523 | 0.447 | 0.992 | 0.814 | 0.923 | 0.923 | 1.12 | 0.94 | 0.938 | 0.96 | 0.923 | 1.06 | 0.858 | 0.785 | 1.25 | 0.856 | 1.13
NCI-H727 | 0.532 | 0.522 | 0.634 | 0.689 | 0.277 |  | 0.365 | 0.351 | 0.485 | 0.424 | 0.355 | 0.366 | 0.397 | 0.429 | 0.667 | 0.545 | 0.564 | 0.457 | 0.759
NCI-H838 | 0.54 | 0.625 | 0.583 | 0.717 | 0.389 | 0.479 | 0.356 | 0.39 | 0.377 | 0.516 | 0.515 | 0.466 | 0.514 | 0.367 | 0.769 | 0.925 | 1.04 | 0.859 | 0.902
NCI-H1355 | 0.442 | 0.46 | 0.493 | 0.499 | 0.352 | 0.418 | 0.41 | 0.426 | 0.5 | 0.411 | 0.43 | 0.444 | 0.423 | 0.357 | 0.715 | 0.828 | 0.622 | 0.835 | 0.736
NCI-H1395 | 0.419 | 0.465 | 0.453 | 0.481 | 0.478 | 0.65 | 0.661 | 0.695 | 0.667 | 0.842 | 0.924 | 0.979 | 1.03 | 1.13 | 0.477 | 0.395 | 0.46 | 0.367 | 0.367
NCI-H1437 | 0.285 | 0.308 | 0.257 | 0.324 | 0.475 | 0.37 | 0.425 | 0.327 | 0.314 | 0.458 | 0.482 | 0.492 | 0.49 | 0.346 | 0.944 | 1.05 | 1.17 | 1.04 | 0.943
NCI-H1651 | 0.316 | 0.366 | 0.326 | 0.377 | 0.42 | 0.626 | 0.588 | 0.423 | 0.625 | 0.715 | 0.785 | 0.898 | 0.797 | 0.859 | 0.473 | 0.346 | 0.508 | 0.416 | 0.466
